Laboratory results published in patent US9090701B2, “Methods of detecting oxidized calcium/calmodulin dependent protein kinase II” (University of Iowa Research Foundation, priority 2008, dated 2015).

Legend:
oxCaMKII = experiment: Western blot of blood samples for oxidized CaMKII; assay type: in vivo, mice; details: mice with cancer, N=1 per group
Description: In order to test whether the anti-oxCaMKII antiserum was suitable for detecting increased CaMKII oxidation in blood under disease conditions associated with enhanced oxidative stress, validated mouse models were utilized. […] (See FIG. 15). Western blot of blood samples and ImageJ analysis were used to quantify total and oxidized CaMKII. (See FIG. 15). […] Mice were exposed to cancer cells and treated with either saline or 2DG. Those mice that tailed to develop tumors after 60 days were labeled as controls. (See FIG. 16). Western blot of blood samples and ImageJ analysis were used to quantify total and oxidized CaMKII. (See FIG. 16). […] (See FIG. 16). Mice were divided into four groups based on the presence or absence of cancer and whether or not they received treatment. Western blot of blood samples and ImageJ analysis were used to quantify total and oxidized CaMKII. (See FIG. 18). Both cancer and varied treatments increase blood oxCaMKII in an additive manner.

Ca^2+/CaM/CaMKII complex = Ca^2+/CaM/CaMKII complex (Mus musculus, UniProt Q6PHZ2); assay type: binding
Protocol: Spectra were collected at 30° C. using a Fluorolog 3 (Jobin Yvon, Horiba) spectrofluorometer. For intrinsic fluorescence shift experiments, excitation wavelength was 270 nm. Emission spectra were generated at Iran increments from 280 nm to 400 nm. Background traces were subtracted from CaMKII spectra to eliminate the contribution from intrinsic fluorescence of CaM. For fluorescence anisotropy experiments, baseline traces of 100 nM dansylated CaM in 15 mM HEPES buffer, pH 7.2 were measured at baseline and after the addition of 200 μM CaCl2 at 60 s. At 180 s, 100 nM purified CaMKII was added to the CaM solution. For some trials, CaMKII became phosphorylated by the addition of 10 mM ATP. 100 μM H2O2 or an equivalent volume of buffer was added at 250 s. Finally, addition of 10 mM EGTA at 300 s was used to remove free calcium from the solution, uncoupling CaM/CaMKII binding.

CaMKIIδ [1] = molecular target: T1, CaMKIIδ (Mus musculus, UniProt Q6PHZ2); assay type: biochemical
Protocol: (§1) Mutant CaMKII cDNAs were generated using a QuikChange site-directed mutagenesis kit (Stratagene). CaMKIIδ (GenBank #NP_001020609) was generated using the Bac-to-Bac baculovirus system (Invitrogen) and purified on a calmodulin-agarose column. For CaMKII activity assays, purified CaMKII was pretreated with 200 μM CaCl2 and 1 μM CaM on ice for 1 minute. The protein was then exposed to ATP, H2O2, or water at the described concentrations for 10 minutes. Samples exposed to ATP or H2O2 were then treated with 10 mM EGTA for 10 minutes. CaMKII activity was measured as a function of ^32P-ATP incorporation into a synthetic substrate (syntide-2) at 30° C., as previously described (Wu e.g., 2002).
(§2) CaMKII is activated by Ca^2+/CaM, but autophosphorylation at T287 sustains catalytic activity after dissociation of Ca^2+/CaM (FIG. 1A) because the negatively charged phosphate prevents reassociation of the catalytic domain and autoinhibitory region (Hudmon and Schulman, 2002). CaMKII activity may also be enhanced by pro-oxidant conditions (Zhu e.g., 2007); it therefore was hypothesized that oxidation of the regulatory domain in the vicinity of T287 could sustain CaMKII catalytic activity by an analogous mechanism.
(§3) These mutants were exposed to H2O2 and assayed for activity in the presence of EGTA (FIG. 1C). […] While the paired methionine motif is conserved in the β, γ, and δ isoforms of CaMKII, the neuronal α isoform substitutes a cysteine residue for the first methionine of the pair (position 280 in CaMKIIα). The side chain of cysteine is also susceptible to oxidation. A M281C mutant of CaMKIIδ was generated to mimic the substitution in CaMKIIα. Additionally, CaMKIIα was generated and purified. […] To further elucidate the role of M281 and M282 in ROS-dependent activation, these sites were individually mutated. […]

cardiomyocytes = experiment: Isolated cardiomyocyte TUNEL staining; assay type: cell-based, mouse
Protocol: (§4) Myocyte isolations from neonatal mouse or rat pups were modified from previously described methods (Mohler e.g., 2007). To generate the primary cardiomyocyte cultures, hearts were dissected from P1 animals and placed in 1 mL of Ham's F-10. Atrial tissue was removed and the ventricular chambers were rinsed to remove any remaining blood. Hearts were transferred into 1.5 mL of 0.05% Trypsin, 200 μM EDTA in Ham's F-10 medium (Mediatech). Hearts were minced into approximately 20 small pieces using forceps and small scissors and incubated in the Trypsin/EDTA medium at 37° C. Following 15 min, the heart pieces were mixed by a Pasteur pipette and incubated for an additional 15 min. A mixture of 200 μL of soybean trypsin inhibitor (2 mg/mL; Worthington) and 200 μL of collagenase (0.2 mg/mL; 1980 units/mg; Sigma) was incubated with the cells for 35-50 min at 37° C. The cell suspension was pelleted, resuspended in “Complete Medium” (40% DMEM, 40% Ham's F-10, 20% FCS), and plated on plastic dishes. Following five hours, the non-adhered cells (cardiomyocytes) were aspirated from the plate, pelleted, resuspended in Complete Medium, and plated on Mattek tissue culture plates (fibronectin-coated; Roche). Cardiomyocytes were washed with Ham's F-10 and Medium was replaced with “Defined Medium” to prevent the growth of fibroblasts. 100× Defined Medium consists of 100 μg/mL insulin, 500 μg/mL transferrin, 100 nM LiCl, 100 nM NaSeO4, and 10 nM thyroxine. To ensure that pure populations of cardiomyocytes were obtained, cultures were immunolabeled with alpha-actinin Ig (cardiomyocyte-specific marker). Only cultures with >90% cardiomyocytes were used in experiments. (See FIG. 12.) Lentiviral treatments (shRNA, rescue constructs) and apoptosis inducing agents (Iso, AngII) were used for 24 hours. Cells were fixed in 4% paraformaldehyde, permeabilized in 0.1% Triton X-100 and sodium citrate, and stained using In Situ cell death detection kits, TMR Red (Roche). TUNEL stain assays were interpreted as previously described (Yang e.g., 2006). Nuclei were co-stained with DAPI. Investigators were blinded to the genetic identity and treatment of the mice in all studies.
Cardiomyocytes from mice that express an inhibitory peptide against CaMKII (AC3-I, Zhang e.g., 2005) were treated with 100 nM AngII for 24 hours in parallel with isolated cardiomyocytes from WT and p47^−/− mice. […] Activity assays for caspase-3, a downstream target enzyme in the CaMKII apoptotic signaling pathway in heart, recapitulated the results from the TUNEL assay (FIG. 7A).

CaMKIIα = CaMKIIα (Homo sapiens, UniProt Q9UQM7)
Protocol: as §1
These mutants were exposed to H2O2 and assayed for activity in the presence of EGTA (FIG. 1C). […] While the paired methionine motif is conserved in the β, γ, and δ isoforms of CaMKII, the neuronal α isoform substitutes a cysteine residue for the first methionine of the pair (position 280 in CaMKIIα). The side chain of cysteine is also susceptible to oxidation. A M281C mutant of CaMKIIδ was generated to mimic the substitution in CaMKIIα. Additionally, CaMKIIα was generated and purified. […] To further elucidate the role of M281 and M282 in ROS-dependent activation, these sites were individually mutated.

CaMKIIδ [2] = molecular target: T1, CaMKIIδ; details: after Ca2+/CaM binding
Protocol: It seemed possible that conditions capable of oxidizing methionine residues would also oxidize unprotected cysteine residues. […] In order to comprehensively test the potential role of all accessible cysteines in contributing to oxidation-dependent CaMKII activity, CaMKII activity responses to H2O2 in the presence of iodoacetic acid were measured. Iodoacetic acid is a reagent that blocks oxidation of unprotected cysteine residues (Zangerle e.g., 1992).

CaMKIIδ [3] = assay type: biochemical; details: for H2O2 (oxidation/ROS)-dependent activation of CaMKII mutant: exposed to H2O2, assayed in the presence of EGTA
Protocol: as §1, §2, §3

rat CaMKIIδ = experiment: CaMKIIδ shRNA knockdown and rescue in cultured neonatal cardiomyocytes; assay type: cell-based; details: shRNA-treated cells; for Rescue of apoptotic response to AngII: 24 hours
Protocol: as §4
The CaMKIIδ-specific shRNA target sequence was selected based on the algorithm of Chalk, Wahlestedt, and Sonnhammer and others (Hammond e.g., 2000; Bernstein e.g., 2001; Brummelkamp e.g., 2002). […] Sense and anti-sense sequences were created and ligated into a modified pFIV lentiviral vector (SBI). For rescue experiments, full-length rat CaMKIIδ was cloned into pCDH1-MCS1-EF1-copOFP (SBI) and completely sequenced. The resulting construct was then modified to be shRNA resistant by engineering conserved residue wobble base changes at four positions in the template (CTG[A]-GCT[C]-ACG[A]-AGA[G] (SEQ ID NO:7))→LATR to LATR. […]

CaMKIIδ [4] = molecular target: T2, CaMKIIδ (Mus musculus, UniProt Q6PHZ2, M281V); assay type: biochemical; details: single point mutation, H2O2
T2 construct: CaMKIIδ (GenBank #NP_001020609) was generated using the Bac-to-Bac baculovirus system; made in house; host or cells: Bac-to-Bac baculovirus system (Invitrogen)
Protocol: as §1, §2, §3

CaMKIIδ [5] = molecular target: T3, CaMKIIδ (Mus musculus, UniProt Q6PHZ2, T287A); assay type: biochemical; details: in the presence of ATP
T3 construct: CaMKIIδ (GenBank #NP_001020609) was generated using the Bac-to-Bac baculovirus system; made in house; host or cells: Bac-to-Bac baculovirus system (Invitrogen)
Protocol: as §1, §2, §3

T1 sequence (Q6PHZ2 2-499): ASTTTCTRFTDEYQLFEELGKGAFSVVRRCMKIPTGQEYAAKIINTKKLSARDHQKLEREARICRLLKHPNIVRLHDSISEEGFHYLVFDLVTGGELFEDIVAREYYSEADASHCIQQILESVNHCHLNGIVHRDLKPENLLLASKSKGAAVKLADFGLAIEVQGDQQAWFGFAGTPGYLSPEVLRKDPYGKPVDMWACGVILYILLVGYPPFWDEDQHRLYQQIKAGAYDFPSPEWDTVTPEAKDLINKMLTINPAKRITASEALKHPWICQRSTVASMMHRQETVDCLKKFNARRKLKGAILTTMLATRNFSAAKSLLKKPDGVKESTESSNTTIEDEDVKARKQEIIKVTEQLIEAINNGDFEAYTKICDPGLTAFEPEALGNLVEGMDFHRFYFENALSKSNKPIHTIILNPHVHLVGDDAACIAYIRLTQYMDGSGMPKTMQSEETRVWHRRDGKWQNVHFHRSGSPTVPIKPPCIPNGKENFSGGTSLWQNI
T3 sequence (Q6PHZ2 2-499 T287A): as the sequence (Q6PHZ2 2-499) above, with T286A counted along it
CaMKIIα, sequence (Q9UQM7 whole entry): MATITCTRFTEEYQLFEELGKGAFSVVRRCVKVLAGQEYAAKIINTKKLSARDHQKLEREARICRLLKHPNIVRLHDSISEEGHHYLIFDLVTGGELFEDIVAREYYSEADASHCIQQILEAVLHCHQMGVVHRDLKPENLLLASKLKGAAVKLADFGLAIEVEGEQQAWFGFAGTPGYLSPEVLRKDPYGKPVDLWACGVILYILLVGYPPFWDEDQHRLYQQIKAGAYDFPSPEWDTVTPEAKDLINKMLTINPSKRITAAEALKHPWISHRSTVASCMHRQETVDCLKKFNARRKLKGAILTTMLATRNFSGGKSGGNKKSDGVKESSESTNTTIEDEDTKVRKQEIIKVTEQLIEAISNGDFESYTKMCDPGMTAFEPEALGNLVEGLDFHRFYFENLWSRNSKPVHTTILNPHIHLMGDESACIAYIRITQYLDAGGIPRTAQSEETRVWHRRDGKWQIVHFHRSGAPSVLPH
T2 sequence (Q6PHZ2 2-499 M281V): as the sequence (Q6PHZ2 2-499) above, with M280V counted along it

O=CC[C@@H](O)[C@H](O)[C@H](O)CO [2-deoxyglucose]
Oxidized CaMKII in blood (oxCaMKII): markedly increased oxidized CaMKII

OO [H2O2, hydrogen peroxide]
CaM trapping (Ca^2+/CaM/CaMKII complex; CaMKII exposure to H2O2 for 10 min): failed to induce CaM trapping | Dissociation kinetics of Ca2+/CaM from autophosphorylated CaMKII (Ca^2+/CaM/CaMKII complex; pretreatment with H2O2 prior to EGTA): no significant effect | Dose dependence of activation of wild type CaMKII by H2O2 (CaMKIIδ [1]; WT CaMKII): close-dependent | CaMKII activation by H2O2 (CaMKIIδ [1]; after pretreatment with Ca2+/CaM, in the presence of EGTA): persistent CaMKII activation | CaMKII activity after exposure to H2O2 (CaMKIIδ [1]; purified CaMKII, absence of any pre-treatment): no discernable CaMKII activity | Apoptotic effect (cardiomyocytes; AC3-I cells compared to WT or p47−/− cells): blunted by more than half | Apoptosis (cardiomyocytes; p47−/− cells): caused significant apoptosis | Activation of purified CaMKIIα by H2O2 (CaMKIIα): activated

O=C(O)CI [iodoacetic acid]
Accessibility of cysteine residues to biochemical modification (CaMKIIδ [2]): blocked the accessibility of cysteine residues | H2O2 activity responses of cysteine protected CaMKIIδ (CaMKIIδ [1]; pretreated with 10 mM iodoacetic acid, vs CaMKIIδ without): equivalent H2O2 activity responses

C290V: CaMKII mutant of the regulatory domain cysteine
Ca2+/CaM-dependent activation (CaMKIIδ [3]): indistinguishable from WT CaMKII | H2O2 (oxidation/ROS)-dependent activation of CaMKII mutant (CaMKIIδ [3]): indistinguishable from WT CaMKII

M281/282V
Rescue of apoptotic response to Iso (rat CaMKIIδ): rescued the apoptotic response to Iso | Rescue of apoptotic response to AngII (rat CaMKIIδ): failed to rescue the apoptotic response to AngII | H2O2 (oxidation/ROS)-dependent activation of CaMKII mutant (CaMKIIδ [3]): completely abolished

M281C: M281C mutant of CaMKIIδ generated to mimic the substitution in CaMKIIα
H2O2 (oxidation/ROS)-dependent activation of CaMKII mutant (CaMKIIδ [3]): activated by H2O2

M281V: CaMKII single point mutant M281V
Reduction of oxidation-dependent activation (CaMKIIδ [4]): 65%

M282V: CaMKII single point mutant M282V
H2O2 (oxidation/ROS)-dependent activation of CaMKII mutant (CaMKIIδ [3]): completely ablated

T287A: CaMKII bearing a T287A substitution
Autophosphorylation (ATP)-dependent Ca2+-independent activity (CaMKIIδ [5]): did not maintain persistent Ca^2+-independent activity | Ca2+/CaM-dependent activation (CaMKIIδ [3]): normal Ca^2+/CaM-dependent activation | H2O2 (oxidation/ROS)-dependent activation of CaMKII mutant (CaMKIIδ [3]): activated by H2O2

WT CaMKII: shRNA-resistant wild type rat CaMKIIδ rescue construct expressed by lentivirus
Rescue of apoptotic response to Iso (rat CaMKIIδ): fully rescued | Rescue of apoptotic response to AngII (rat CaMKIIδ): fully rescued
